Source: patent US20100196932A1, “Yeast Reporter System” (THE BOARD OF TRUSTEES OF THE UNIVERSITY OF ILLINOIS, priority 2006, published 2010)

Tests used:
AβMRF [1] = type: cell-based, S. cerevisiae
Aβm1MRF = type: cell-based, S. cerevisiae
Aβm2MRF = type: cell-based, S. cerevisiae
AβMRF [2] = type: cell-based, S. cerevisiae; remark: listed apart in the source
Hsp104 = Hsp104 (Saccharomyces cerevisiae, UniProt P31539); details: cited from earlier work
[3] = biological target: the molecule itself; assay: self-oligomerization; SDS electrophoresis and immunoblot of yeast lysates
[4] = biological target: the molecule itself; assay: SDS electrophoresis (1% SDS, room temperature) and immunoblot of yeast lysates
Hsp104 (yeast chaperone) = Hsp104 (yeast chaperone) (yeast S. cerevisiae, UniProt P31539 1-908); assay: co-immunoprecipitation from yeast lysate with anti-HA agarose beads, immunoblot with anti-Hsp104
Description: FIG. 7. […] Co-precipitated proteins were eluted and analyzed by immunoblotting with anti-RF and anti-Hsp104 antibodies.
Following incubation, the beads were washed three times with 0.5 ml of phosphate buffered saline containing 0.05% Tween 20 to remove the non-specifically bound proteins.

Hsp104, sequence (P31539 whole entry): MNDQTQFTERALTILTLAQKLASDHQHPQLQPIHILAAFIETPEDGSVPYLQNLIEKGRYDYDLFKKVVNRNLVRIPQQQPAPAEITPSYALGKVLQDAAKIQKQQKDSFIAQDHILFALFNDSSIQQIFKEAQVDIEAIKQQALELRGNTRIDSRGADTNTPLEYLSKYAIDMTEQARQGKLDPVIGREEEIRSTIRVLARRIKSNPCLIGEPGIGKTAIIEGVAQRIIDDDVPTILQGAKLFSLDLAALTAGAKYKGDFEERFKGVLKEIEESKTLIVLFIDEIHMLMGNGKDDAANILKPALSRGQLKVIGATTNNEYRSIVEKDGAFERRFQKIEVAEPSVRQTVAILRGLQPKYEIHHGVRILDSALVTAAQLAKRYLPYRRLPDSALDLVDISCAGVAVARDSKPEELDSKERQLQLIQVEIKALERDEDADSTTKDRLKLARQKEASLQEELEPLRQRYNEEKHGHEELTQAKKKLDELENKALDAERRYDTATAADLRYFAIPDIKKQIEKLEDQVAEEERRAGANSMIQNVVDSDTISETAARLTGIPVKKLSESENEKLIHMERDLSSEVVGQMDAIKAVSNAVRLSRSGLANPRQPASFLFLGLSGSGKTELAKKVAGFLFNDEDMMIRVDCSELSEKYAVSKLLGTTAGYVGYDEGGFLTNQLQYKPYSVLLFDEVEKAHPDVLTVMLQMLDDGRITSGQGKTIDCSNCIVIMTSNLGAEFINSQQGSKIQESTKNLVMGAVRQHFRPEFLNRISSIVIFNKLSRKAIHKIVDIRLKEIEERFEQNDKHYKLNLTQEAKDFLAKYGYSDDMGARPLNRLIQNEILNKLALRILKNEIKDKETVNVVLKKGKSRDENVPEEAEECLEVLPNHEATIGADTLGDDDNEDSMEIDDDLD
Hsp104 (yeast chaperone), sequence (P31539 whole entry): as above

For guanidine hydrochloride, the “amount of AβMRF oligomers” value (AβMRF [1]) was “dramatically increased”, the “monomeric pool of AβMRF” value (AβMRF [1]) was “depleting the monomeric pool” and the “amount of Aβm1MRF oligomers” value (Aβm1MRF) was “dramatically increased”. The “monomeric pool of Aβm1MRF” value (Aβm1MRF) was “depleting the monomeric pool”, the “effect on oligomers/monomers of control Aβm2MRF protein” value (Aβm2MRF) was “No such effect was detected” and the “oligomerization of AβMRF in the absence of HSP104” value (AβMRF [2]) was “stimulated oligomerization of AβMRF”. For the same molecule, the “ATPase activity of Hsp104” value (Hsp104) was “inhibited by millimolar concentrations”.

B1: Aβm1MRF (Aβ42 F19,20T MRF, plasmid p1397) (other, yeast S. cerevisiae, not shown: small tags and cut ends)
chain: MDAEFRHDSGYEVHHQKLVTTAEDVGSNKGAIIGLMVGGVVIAMSLNDFQKQQKQAAPKPKKTLKLVSSSGIKLANATKKVGTKPAESDKKEEEKSAETKEPTKEPTKVEEPVKKEEKPVQTEEKTEEKSELPKVEDLKISESTHNTNNANVTSADALIKEQEEEVDDEVVNDMFGGKDHVSLIFMGHVDAGKSTMGGNLLYLTGSVDKRTIEKYEREAKDAGRQGWYLSWVMDTNKEERNDGKTIEVGKAYFETEKRRYTILDAPGHKMYVSEMIGGASQADVGVLVISARKGEYETGFERGGQTREHALLAKTQGVNKMVVVVNKMDDPTVNWSKERYDQCVSNVSNFLRAIGYNIKTDVVFMPVSGYSGANLKDHVDPKECPWYTGPTLLEYLDTMNHVDRHINAPFMLPIAAKMKDLGTIVEGKIESGHIKKGQSTLLMPNKTAVEIQNIYNETENEVDMAMCGEQVKLRIKGVEEEDISPGFVLTSPKNPIKSVTKFVAQIAIVELKSIIAAGFSCVMHVHTAIEEVHIVKLLHKLEKGTNRKSKKPPAFAKKGMKVIAVLETEAPVCVETYQDYPQLGRFTLRDQGTTIAIGKIVKIAE
notes: domain: M;domain: RF; also called Aβ^F19,20TMRF
B1: binds [3].

B2: MRF (HA-tagged Sup35p without the 123 N-terminal amino acids, plasmid p1366) (other, yeast S. cerevisiae, UniProt P05453 124-253, looked up, not shown: small tags and cut ends)
chain: MSLNDFQKQQKQAAPKPKKTLKLVSSSGIKLANATKKVGTKPAESDKKEEEKSAETKEPTKEPTKVEEPVKKEEKPVQTEEKTEEKSELPKVEDLKISESTHNTNNANVTSADALIKEQEEEVDDEVVNDMFGGKDHVSLIFMGHVDAGKSTMGGNLLYLTGSVDKRTIEKYEREAKDAGRQGWYLSWVMDTNKEERNDGKTIEVGKAYFETEKRRYTILDAPGHKMYVSEMIGGASQADVGVLVISARKGEYETGFERGGQTREHALLAKTQGVNKMVVVVNKMDDPTVNWSKERYDQCVSNVSNFLRAIGYNIKTDVVFMPVSGYSGANLKDHVDPKECPWYTGPTLLEYLDTMNHVDRHINAPFMLPIAAKMKDLGTIVEGKIESGHIKKGQSTLLMPNKTAVEIQNIYNETENEVDMAMCGEQVKLRIKGVEEEDISPGFVLTSPKNPIKSVTKFVAQIAIVELKSIIAAGFSCVMHVHTAIEEVHIVKLLHKLEKGTNRKSKKPPAFAKKGMKVIAVLETEAPVCVETYQDYPQLGRFTLRDQGTTIAIGKIVKIAE
notes: domain: M;domain: RF; also called HA-tagged MRF; Sup35p without the N-terminal prion domain
B2: no binding [4]; no binding (Hsp104 (yeast chaperone)).
